{"source": "patent US8993527B2", "about": "“Methods, compositions, and formulations for preventing or reducing adverse effects in a patient” (Pericor Therapeutics, Inc., priority 2005, dated 2015)", "key": {"[1]": {"molecular_target": "T1, purified pig heart adenosine kinase (Sus scrofa, UniProt A0A5G2R0F5)", "T1 construct": "0.1 μg of purified pig heart adenosine kinase; from tissue; host or cells: pig heart", "T1 sequence (A0A5G2R0F5 1-362)": "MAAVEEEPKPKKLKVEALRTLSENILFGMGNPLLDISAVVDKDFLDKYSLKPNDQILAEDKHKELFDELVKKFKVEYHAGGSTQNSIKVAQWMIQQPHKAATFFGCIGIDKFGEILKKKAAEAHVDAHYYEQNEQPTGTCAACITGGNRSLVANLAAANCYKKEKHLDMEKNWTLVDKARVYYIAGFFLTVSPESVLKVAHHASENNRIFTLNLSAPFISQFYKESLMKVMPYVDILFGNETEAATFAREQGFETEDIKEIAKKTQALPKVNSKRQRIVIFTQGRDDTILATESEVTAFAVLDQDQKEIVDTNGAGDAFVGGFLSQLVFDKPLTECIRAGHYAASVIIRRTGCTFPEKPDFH", "experiment": "Adenosine kinase activity", "format": "biochemical", "conditions": "0.5 μM [U14C] adenosine, 1 mM ATP, 20 minutes at 37° C.", "protocol": "Inhibition of enzyme activity was determined using a 0.1 ml assay mixture containing 50 mM Tris-maleate, pH 7.0, 0.1% (w/v) BSA, 1 mM ATP, 1 mM MgCl2, 0.5 μM [U^14 C] adenosine (500 mCi/mmol) and 0.1 μg of purified pig heart adenosine kinase. Different concentrations of test compound were incubated in the assay mixture for 20 minutes at 37° C. From each reaction mixture, 20 μl portions were removed and spotted on 2^2 pieces of Whatman DE81 filter paper. The papers were then washed to remove [^14 C] adenosine in 1 mM ammonium formate followed by deionized water and finally 95% ethanol. The papers were dried, and [^14C] AMP measured by scintillation counting. Activities were determined from the amount of [^14C] AMP formed."}, "[2]": {"tested_on": "longitudinal muscle from the guinea pig ileum", "experiment": "Inhibition of stimulated contraction in isolated ileum", "conditions": "electrically stimulated guinea pig ileum muscle", "text": "These are detailed in Table II."}, "[3]": {"tested_on": "platelet aggregation in human whole blood", "experiment": "Inhibition of platelet aggregation in human whole blood", "format": "cell-based", "conditions": "Homo sapiens, Platelet, 10 min, 10 minutes at 37° C., 10 µM adenosine added, ADP (6-25 μM)", "protocol": "Whole blood was drawn from healthy donors and collected in 0.1 vol. of sodium citrate to prevent coagulation. Platelet aggregation was measured by the impedance technique using a Whole Blood Aggregometer. The test compounds were incubated in whole blood for 10 minutes at 37° C. and 10 µM adenosine was added 5 minutes before eliciting aggregation. Aggregation was induced by addition of ADP (6-25 μM) at the minimum concentration inducing full aggregation in untreated controls."}, "[4]": {"molecular_target": "T2, NBTI-specific adenosine transport site (UniProt O54698)", "T2 sequence (O54698 1-457)": "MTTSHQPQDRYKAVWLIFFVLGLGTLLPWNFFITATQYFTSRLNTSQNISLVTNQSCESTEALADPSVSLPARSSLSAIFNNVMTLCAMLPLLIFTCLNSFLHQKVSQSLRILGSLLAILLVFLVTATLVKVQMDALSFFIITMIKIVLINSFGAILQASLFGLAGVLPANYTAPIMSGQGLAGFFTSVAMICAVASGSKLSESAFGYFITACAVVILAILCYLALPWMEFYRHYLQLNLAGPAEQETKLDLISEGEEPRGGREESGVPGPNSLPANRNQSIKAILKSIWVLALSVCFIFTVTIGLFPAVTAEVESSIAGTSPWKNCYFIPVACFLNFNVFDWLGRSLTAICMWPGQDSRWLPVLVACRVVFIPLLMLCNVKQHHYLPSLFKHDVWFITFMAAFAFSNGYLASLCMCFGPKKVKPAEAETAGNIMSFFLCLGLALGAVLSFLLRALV", "experiment": "[3H]-NBTI binding assay", "conditions": "read-out: ED50 (50% displacement of bound [3H]-NBTI); 0.5 mg neuronal membrane protein, 0.5 nM [3H]-NBTI, 30 minutes", "protocol": "Increasing concentrations of the test compounds were incubated for 30 minutes with 0.5 mg neuronal membrane protein together with 0.5 nM [^3 H]-NBTI in a Tris buffer (pH 7.4) at room temperature. The assays were quenched and membranes collected by rapid filtration. Filters were then solubilized and radioactivity determined by scintillation counting."}, "[5]": {"tested_on": "coronary endothelial cells", "experiment": "Inhibition of adenosine utilization in cell culture", "format": "cell-based", "conditions": "Endothelial cell, 1 μM [3H] adenosine, 15 minutes", "protocol": "In this assay, endothelial cells were incubated with 5 μM or 50 μM of the test compound together with 1 μM [^3H] adenosine for 15 minutes. Inhibition of adenosine utilization was determined by measuring the concentration of extracellular adenosine by scintillation counting following separation by thin layer chromatography (TLC)."}, "ischemic rat hearts": {"tested_on": "ischemic rat hearts", "experiment": "Rat heart ischemia model: tissue adenosine levels", "format": "in vivo", "conditions": "intraperitoneal; hearts excised after 60 minutes, incubated 60 minutes at 37° C.", "protocol": "Male rats were injected intraperitonealy with either the AICA riboside analog, AICA riboside or saline, as a control. After 60 minutes, the hearts were excised and incubated at 37° C. for a further 60 minutes. Tissue extracts were prepared and analyzed for adenosine by high performance liquid chromatography (HPLC)."}, "[6]": {"experiment": "Oral bioavailability and half-life in fasted adult beagles", "format": "in vivo, dog", "protocol": "Heparinized blood and urine were collected at selected intervals over 24 hours. Each sample was chilled, centrifuged at 4° C. and frozen prior to HPLC analysis."}}, "data": [{"smiles": "NC(=O)c1nc(S)n([C@@H]2O[C@H](CO)[C@@H](O)[C@H]2O)c1N", "note": "[27 (1-395), 5-amino-2-thio-1-β-D-ribofuranosyl imidazole-4-carboxamide]", "values": [{"measurement": "IC50", "setting": "[1]", "result": 8, "unit": "µM"}, {"measurement": "IC50", "setting": "[2]; Cavia porcellus", "result": 500, "unit": "µM"}, {"measurement": "melting point", "result": "205 to 208", "unit": "°C"}, {"measurement": "IC50", "setting": "[3]", "result": 950, "unit": "µM"}, {"measurement": "EC50", "setting": "[4]", "result": 344, "unit": "µM"}]}, {"smiles": "Nc1c(C(=O)NCc2ccc([N+](=O)[O-])cc2)ncn1C1OC(CCl)C(O)C1O", "note": "(stereo not shown) [51 (1-466)]", "values": [{"measurement": "melting point", "result": "174 to 176", "unit": "°C"}, {"measurement": "inhibition at 5 µM", "setting": "[5]; 5 μM", "result": "27 ± 2", "unit": "%"}, {"measurement": "inhibition at 50 µM", "setting": "[5]; 50 μM", "result": "65 ± 2", "unit": "%"}, {"measurement": "IC50", "setting": "[3]", "result": 193, "unit": "µM"}]}, {"smiles": "Nc1c(C(=O)NC2CC2)ncn1[C@@H]1O[C@H](CO)[C@@H](O)[C@H]1O", "note": "[Compound No. 12 (1-232), 5-Amino-1-beta-D-ribofuranosylimidazole-4-N-(cyclopropyl)carboxamide]", "values": [{"measurement": "IC50", "setting": "[2]", "result": 400, "unit": "µM"}, {"measurement": "Tissue Adenosine Levels (% Increase vs. Saline)", "setting": "ischemic rat hearts", "result": 29, "unit": "%"}]}, {"smiles": "NC[C@H]1O[C@@H](n2cnc(C(N)=O)c2N)[C@H](O)[C@@H]1O", "note": "[Compound No. 21 (1-227), 5′-Amino-5′-deoxy-AICA-riboside]", "values": [{"measurement": "Half Life", "setting": "[6]", "result": 1.30, "unit": "h"}, {"measurement": "Absolute Oral Bioavailability %", "setting": "[6]; 10 mg/kg IV bolus and 20 mg/kg via stomach tube", "result": "71 ± 13 (n = 2) %"}, {"measurement": "IC50", "setting": "[2]", "result": 800, "unit": "µM"}]}, {"smiles": "Nc1c(C(=O)NN2CCCCC2)ncn1[C@@H]1O[C@H](CO)[C@@H](O)[C@H]1O", "note": "[Compound No. 36 (1-207), 5-amino-4-(1-piperidinocarbamoyl)-1-β-D-ribofuranosylimidazole]", "values": [{"measurement": "Tissue Adenosine Levels (% Increase vs. Saline)", "setting": "ischemic rat hearts", "result": 34, "unit": "%"}]}, {"smiles": "Nc1c(C(=O)Nc2ccccc2Cl)ncn1C1OC(CO)C(O)C1O", "note": "[Compound No. 64 (1-519), 5-Amino-1-β-D-ribofuranosylimidazole-4-N-(2-chlorophenyl)carboxamide]", "values": [{"measurement": "melting point", "result": "131 to 135", "unit": "°C"}, {"measurement": "EC50", "setting": "[4]", "result": 48, "unit": "µM"}]}, {"smiles": "C[C@H]1O[C@@H](n2c(S)nc(C(N)=O)c2N)[C@H](O)[C@@H]1O", "note": "[Compound No. 67 (1-535), 5-Amino-2-thio-1-βD-(5 deoxyribofuranosyl)imidazole-4-carboxamide]", "values": [{"measurement": "IC50", "setting": "[1]", "result": 23, "unit": "µM"}]}, {"smiles": "NC[C@H]1O[C@@H](n2c(S)nc(C(N)=O)c2N)[C@H](O)[C@@H]1O", "note": "[Compound No. 70 (1-551), 5-Amino-2-thio-1-(5-amino-5-deoxy-β-D-ribofuranosyl)imidazole-4-carboxamide]", "values": [{"measurement": "IC50", "setting": "[1]", "result": 17, "unit": "µM"}]}]}
